Test results taken from patent US6610304B1, “Liposomes containing multiple branch peptide constructions for use against human immunodeficiency virus” (priority 1997, dated 2003).

Experiments:
[1] = Toxicity, intravenous injection into mice; format: in vivo; settings: 50 mg/kg of SPC3, immediately, after 12 or 24 hours
Protocol: To determine toxicity, the 250 nm dialysed liposomes containing SPC3 were injected intravenously into 8 mice at a dose of 50 mg/kg of SPC3.

[2] = tested on: HIV-1 Hx10clone; assay: Infection assay: inhibition of cell infection (cell-free p24 by ELISA); format: cell-based; settings: C8166 cells, supernatant ELISA, no unit or concentration given
Protocol: C8166 cells were washed once in RPMI medium and then infected with HIV-1 Hx10clone by incubation at 37° C. for 2 hours in the presence of test substances (SPC3, SPC RL, empty liposomes of 110 nm and 250 nm average size, and dialysed and non-dialysed liposomes of those sizes containing SPC3) and in the absence of any test substance (control). After incubation, the virus was removed and the cells were incubated with fresh medium at 37° C. in the presence of the test substances or in the absence of any test substance (control). Infections and cell cultures were in 96-well culture plates. The production of HIV was monitored by measuring the concentration of cell-free p24 in the supernatant by ELISA, as described by Gluschankof et al., 1997, using the AMPAK amplification kit (DAKO. Trappes, France). The results are shown in Table 2 below, and the day 4 results are also shown graphically in the accompanying drawing.

[3] = tested on: HIV-1 Hx10 clone; assay: Fusion assay: inhibition of syncytium formation; format: cell-based; settings: concentration 10^−6 M, C8166 cells
Protocol: C8166 cells were incubated at 37° C. with HIV-1 Hx10 clone (B. Hahn, University of Alabama, USA) in the presence of test substances (SPC3, SPC RL, empty liposomes of 110 nm and 250 nm average size, and dialysed and non-dialysed liposomes of those sizes containing SPC3) and in the absence of any test substance (control). The samples were inspected by phase contrast microscopy and syncytia were scored after 48 and 72 hours of incubation in 96-well flat-bottomed cultured plates. Experiments were performed three times in duplicate and identical results were obtained. The presence of syncytia is indicated by + signs. allocated as follows: […]

Compound	symptoms of toxicity [1]	p24 production ([2]; Day 3 post-infection)	p24 production ([2]; Day 4 post-infection)	Syncitia Formation ([3]; Day 2 post-infection)	Syncitia Formation ([3]; Day 3 post-infection)
C[C@H](NC(=O)[C@H](CCCNC(=N)N)NC(=O)CNC(=O)[C@@H]1CCCN1C(=O)CN)C(=O)N[C@@H](Cc1ccccc1)C(=O)NCCCC[C@H](NC(=O)[C@H](Cc1ccccc1)NC(=O)[C@H](C)NC(=O)[C@H](CCCNC(=N)N)NC(=O)CNC(=O)[C@@H]1CCCN1C(=O)CN)C(=O)NCCCC[C@H](NC(=O)[C@H](CCCCNC(=O)[C@H](Cc1ccccc1)NC(=O)[C@H](C)NC(=O)[C@H](CCCNC(=N)N)NC(=O)CNC(=O)[C@@H]1CCCN1C(=O)CN)NC(=O)[C@H](Cc1ccccc1)NC(=O)[C@H](C)NC(=O)[C@H](CCCNC(=N)N)NC(=O)CNC(=O)[C@@H]1CCCN1C(=O)CN)C(=O)NCCCC[C@H](NC(=O)[C@H](CCCCNC(=O)[C@H](CCCCNC(=O)[C@H](Cc1ccccc1)NC(=O)[C@H](C)NC(=O)[C@H](CCCNC(=N)N)NC(=O)CNC(=O)[C@@H]1CCCN1C(=O)CN)NC(=O)[C@H](Cc1ccccc1)NC(=O)[C@H](C)NC(=O)[C@H](CCCNC(=N)N)NC(=O)CNC(=O)[C@@H]1CCCN1C(=O)CN)NC(=O)[C@H](CCCCNC(=O)[C@H](Cc1ccccc1)NC(=O)[C@H](C)NC(=O)[C@H](CCCNC(=N)N)NC(=O)CNC(=O)[C@@H]1CCCN1C(=O)CN)NC(=O)[C@H](Cc1ccccc1)NC(=O)[C@H](C)NC(=O)[C@H](CCCNC(=N)N)NC(=O)CNC(=O)[C@@H]1CCCN1C(=O)CN)C(=O)NCCC(=O)O [SPC3, (GPGRAF)8-(K)4-(K)2-K-βA-OH]	symptoms of toxicity were observed	–	–	–	–
(RQGYSPL)8-(K)4-(K)2-K-βA-OH [SPC RL]	–	0.441	0.463	+/− (+/−=>95 % decrease)	+/− (+/−=>95 % decrease)
